In US10329270B2, “Heteroaryl compounds as BTK inhibitors and uses thereof” (Merck Patent GmbH, priority 2013, dated 2019):

Each compound was assayed against T1, full-length human BTK (Homo sapiens, UniProt Q06187) (assay: Assay A: BTK IC50 Enzyme Assay (microfluidic off-chip mobility shift kinase assay)). Conditions: full-length human BTK, kinKDR peptide substrate, incubated 90 min at 27 C; read-out: Assay A (Time Dependent BTK Enzyme Assay IC50).
T1 construct: 2.5× stocks of full-length human BTK (08-080); purchased CarnaBio USA, Inc., Natick, Mass; 08-080
Assay type: biochemical
Description: Assay A: BTK IC50 Enzyme Assay
The following describes a microfluidic, off-chip mobility shift kinase assay used to measure inherent potency of compounds against BTK enzyme. Compounds described by embodiments of the present invention were assayed using this protocol and the data from the same is recorded in Table 2 within the column labeled: “Time Dependent BTK Enzyme Assay IC50”.
Stopped reactions were monitored at −2 PSI, −3000 V/−700 V in a LabChip 3000 plate reader from Caliper Life Sciences, a PerkinElmer Company (Hopkinton, Mass.), and the activity was measured by off-chip mobility shift assay measuring the charge/mass difference between substrate and product resulting from peptide phosphorilation. IC50 and efficacy were determined by plotting log [Inhibitor] vs. % Activity in GeneData Screener (Basel, Switzerland). […] I<1 uM and II>1 uM.

T1 sequence (Q06187 whole entry): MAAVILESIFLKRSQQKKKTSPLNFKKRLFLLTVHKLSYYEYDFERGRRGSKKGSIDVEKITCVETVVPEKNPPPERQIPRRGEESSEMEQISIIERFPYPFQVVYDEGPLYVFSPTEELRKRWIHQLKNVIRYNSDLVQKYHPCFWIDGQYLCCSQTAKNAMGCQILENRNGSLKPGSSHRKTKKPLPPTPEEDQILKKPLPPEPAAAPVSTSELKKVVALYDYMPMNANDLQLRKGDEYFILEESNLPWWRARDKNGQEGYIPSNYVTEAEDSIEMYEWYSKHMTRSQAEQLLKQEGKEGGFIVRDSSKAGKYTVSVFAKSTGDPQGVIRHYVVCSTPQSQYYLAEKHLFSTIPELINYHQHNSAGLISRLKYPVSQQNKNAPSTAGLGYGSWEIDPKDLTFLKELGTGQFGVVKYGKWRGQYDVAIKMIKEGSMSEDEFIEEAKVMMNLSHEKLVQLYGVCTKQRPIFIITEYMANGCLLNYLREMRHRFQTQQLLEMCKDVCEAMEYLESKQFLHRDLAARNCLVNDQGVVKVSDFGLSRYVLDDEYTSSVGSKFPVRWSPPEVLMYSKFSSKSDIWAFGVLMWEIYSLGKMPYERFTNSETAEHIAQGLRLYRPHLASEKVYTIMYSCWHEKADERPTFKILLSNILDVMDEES

Row | SMILES | IC50 [µM]
1 | C=CC(=O)N1CC=C(c2ccc(C(N)=O)c(Nc3ccc(OC4CCN(C)CC4)cc3)n2)CC1 [Compound 13, 1′-Acryloyl-6-[4-(1-methyl-piperidin-4-yloxy)-phenylamino]-1′,2′,3′,6′-tetrahydro-[2,4′]bipyridinyl-5-carboxylic acid amide] | < 0.1
2 | C=CC(=O)Nc1cccc(-c2ccc(C(N)=O)c(Oc3ccc(Oc4ccccc4)cc3)n2)c1 [Compound 80, 6-(3-acrylamidophenyl)-2-(4-phenoxyphenoxy)nicotinamide] | < 0.1
3 | C=CC(=O)N[C@H]1CCN(c2nc(Cl)ccc2C(N)=O)C1 [Compound 163, 2-((S)-3-Acryloylamino-pyrrolidin-1-yl)-6-chloro-nicotinamide] | > 5
4 | C=CC(=O)N[C@H]1CCN(c2ccc(C(N)=O)c(Nc3ccc(C(=O)N(C)C)cc3)n2)C1 [Compound 26, 6-((S)-3-Acryloylamino-pyrrolidin-1-yl)-2-(4-dimethylcarbamoyl-phenylamino)-nicotinamide] | < 0.1
5 | C=CC(=O)N[C@H]1CCN(c2nc(Nc3ccc(NC(=O)C(C)(C)C)cc3)ccc2C(N)=O)C1 [Compound 156, 2-((S)-3-Acryloylamino-pyrrolidin-1-yl)-6-[4-(2,2-dimethyl-propionylamino)-phenylamino]-nicotinamide] | < 0.1
6 | C=CC(=O)Nc1ccc(-c2ccc(C(N)=O)c(Oc3ccc(Oc4ccccc4)cc3)n2)cc1 [Compound 159, 6-(4-acrylamidophenyl)-2-(4-phenoxyphenoxy)nicotinamide] | > 5
7 | CN(C)C/C=C/C(=O)N[C@H]1C[C@@H](Nc2ncc(C(N)=O)c(N)n2)C1 [Compound 162, 4-Amino-2-[3-(4-dimethylamino-but-2-enoylamino)-cyclobutylamino]-pyrimidine-5-carboxylic acid amide] | > 5
8 | C=CC(=O)N1CCN(c2ccc(C(N)=O)c(Nc3cccnc3)n2)CC1 [Compound 43] | < 0.1
9 | C=CC(=O)N[C@H]1CCN(c2ccc(C(N)=O)c(Nc3ccc(NC(=O)C(C)(C)C)cc3)n2)C1 [Compound 59, 6-((S)-3-Acryloylamino-pyrrolidin-1-yl)-2-[4-(2,2-dimethyl-propionylamino)-phenylamino]-nicotinamide] | 0.1 to 1
10 | C=CC(=O)N1C2CCC1CN(c1ncc(C(N)=O)c(Oc3ccc(Oc4ccccc4)cc3)n1)C2 [Compound 149, 2-(8-Acryloyl-3,8-diaza-bicyclo[3.2.1]oct-3-yl)-4-(4-phenoxy-phenoxy)-pyrimidine-5-carboxylic acid amide] | < 0.1
11 | C=CC(=O)N1CCC(c2ccc(C(N)=O)c(Oc3ccc(Oc4ccccc4)cc3)n2)C1 (stereo not shown) [Compound 70, 6-(1-acryloylpyrrolidin-3-yl)-2-(4-phenoxyphenoxy)nicotinamide] | < 0.1
12 | C=CC(=O)N[C@H]1CCN(c2ccc(C(N)=O)c(Nc3cccnc3)n2)C1 [Compound 52, 6-((S)-3-Acryloylamino-pyrrolidin-1-yl)-2-(pyridin-3-ylamino)-nicotinamide] | < 0.1
13 | C=CC(=O)N1CCC(c2cnc(C(N)=O)nc2)C1 (stereo not shown) [Compound 155] | > 5
14 | CC(C)=CC(=O)C1CCN(c2ccc(C(N)=O)c(Oc3ccc(Oc4ccccc4)cc3)n2)C1 (stereo not shown) [Compound 93, 6-[3-(3-Methyl-but-2-enoyl)-pyrrolidin-1-yl]-2-(4-phenoxy-phenoxy)-nicotinamide] | 0.1 to 1
15 | C=CC(=O)N1CC=C(c2ccc(C(N)=O)c(Nc3ccc(C(=O)N4CCCCC4)cc3)n2)CC1 [Compound 28, 1′-Acryloyl-6-[4-(piperidine-1-carbonyl)-phenylamino]-1′,2′,3′,6′-tetrahydro-[2,4′]bipyridinyl-5-carboxylic acid amide] | < 0.1
16 | C=CC(=O)N[C@H]1CCN(c2ccc(C(N)=O)c(Oc3ccc(OCc4ccccc4)cc3)n2)C1 [Compound 90, (S)-6-(3-acrylamidopyrrolidin-1-yl)-2-(4-(benzyloxy)phenoxy)nicotinamide] | 0.1 to 1
17 | C=CC(=O)N1CCC(c2ccc(C(N)=O)c(Oc3ccc(Oc4ccc(C)cc4)cc3)n2)C1 (stereo not shown) [Compound 81, 6-(1-acryloylpyrrolidin-3-yl)-2-(4-(p-tolyloxy)phenoxy)nicotinamide] | < 0.1
18 | C=CC(=O)N[C@H]1CCN(c2ccc(C(N)=O)c(Oc3cccnc3)n2)C1 [Compound 92, 6-((S)-3-Acryloylamino-pyrrolidin-1-yl)-2-(pyridin-3-yloxy)-nicotinamide] | 0.1 to 1

Now from value to compound:

Row | IC50 [µM] | SMILES
19 | > 5 | C/C=C/C(=O)NC1CCN(c2cnc(Oc3ccc(Oc4cccc(F)c4)cc3)c(C(N)=O)c2)CC1 [Compound 214, 4-((E)-But-2-enoylamino)-6′-[4-(3-fluoro-phenoxy)-phenoxy]-3,4,5,6-tetrahydro-2H-[1,3′]bipyridinyl-5′-carboxylic acid amide]
20 | > 5 | N#CN1CCC[C@@H](c2cnc(Oc3ccc(Oc4ccc(F)cc4F)cc3)c(C(N)=O)c2)C1 [Compound 249, 5-[(3S)-1-cyanopiperidin-3-yl]-2-[4-(2,4-difluorophenoxy)phenoxy]pyridine-3-carboxamide]
21 | < 0.1 | C=CC(=O)N[C@H]1CCN(c2ncc(C#N)c(Nc3ccc(C(=O)NC(C)(C)C)cc3)n2)C1 [Compound 178]
22 | < 0.1 | C=CC(=O)N[C@@H]1CCCN(c2nc(Nc3ccc(N4CCN(C)CC4)cc3)c(C(N)=O)cc2F)C1 [Compound 226, (R)-3-Acryloylamino-3′-fluoro-6′-[4-(4-methyl-piperazin-1-yl)-phenylamino]-3,4,5,6-tetrahydro-2H-[1,2′]bipyridinyl-5′-carboxylic acid amide]
23 | 0.1 to 1 | C=CC(=O)N1CCCN(c2ncc(C(N)=O)c(Oc3ccc(Oc4ccccc4)cc3)n2)CC1 [Compound 206, 2-(4-acryloyl-1,4-diazepan-1-yl)-4-(4-phenoxyphenoxy)pyrimidine-5-carboxamide]
24 | 1 to 5 | C/C=C/C(=O)N1CCC(c2cnc(Oc3ccc(Oc4cccc(F)c4)cc3)c(C(N)=O)c2)C1 (stereo not shown) [Compound 167, 5-[1-((E)-But-2-enoyl)-pyrrolidin-3-yl]-2-[4-(3-fluoro-phenoxy)-phenoxy]-nicotinamide]
25 | 1 to 5 | C/C=C(\C#N)C(=O)N1C[C@@H]2C[C@H]1CN2c1ncc(C(N)=O)c(Oc2ccc(Oc3ccccc3)cc2)n1 [Compound 211, 2-((1S,4S)-5-((E)-2-cyanobut-2-enoyl)-2,5-diazabicyclo[2.2.1]heptan-2-yl)-4-(4-phenoxyphenoxy)pyrimidine-5-carboxamide]
26 | > 5 | C/C=C/C(=O)NC1CCCN(c2cnc(Oc3ccc(Oc4ccccc4)cc3)c(C(N)=O)c2)C1 (stereo not shown) [Compound 213, 3-((E)-But-2-enoylamino)-6′-(4-phenoxy-phenoxy)-3,4,5,6-tetrahydro-2H-[1,3′]bipyridinyl-5′-carboxylic acid amide]
27 | < 0.1 | C=CC(=O)N[C@H]1CCN(c2nc(Nc3ccc(N4CC(C)OC(C)C4)c(F)c3)c(C(N)=O)cc2F)C1 (stereo partly drawn) [Compound 181, 6-((S)-3-Acryloylamino-pyrrolidin-1-yl)-2-[4-(2,6-dimethyl-morpholin-4-yl)-3-fluoro-phenylamino]-5-fluoro-nicotinamide]
28 | 0.1 to 1 | C=CC(=O)N1CC2(CC(Nc3ncc(C(N)=O)c(Oc4ccc(Oc5ccccc5)cc4)n3)C2)C1 [Compound 183, 2-((2-acryloyl-2-azaspiro[3.3]heptan-6-yl)amino)-4-(4-phenoxyphenoxy)pyrimidine-5-carboxamide]
